Test results taken from publication PMC9154759 (2022).

Tested on: aptamer 1 (DNA, aptamer) GGGAGCTCAGAATAAACGCTCAATACTATCGCGGAGACAGCGCGGGAGGCACCGGGGAGATCCGGGCCTCATGTCGAA
Experiment: berberine fluorescence enhancement (ex 365 nm, em 530 nm)
Conditions: 37 °C, 30 min; 50 μg/mL berberine, 0-280 nM aptamer, plateau at 200 nM; binding buffer not stated

COc1ccc2cc3[n+](cc2c1OC)CCc1cc2c(cc1-3)OCO2
binding: yes
